# From patent US11806340B2, “Methods of diagnosing and treating conduct disorder” (THE CHILDREN'S HOSPITAL OF PHILADELPHIA, priority 2015, dated 2023)
# Tests used:
# [1] = prior human studies; cited from earlier work
# [2] = test system: ADHD subjects with CNV in an mGluR network gene; test: Open-label Phase Ib clinical trial of NFC-1 in adolescent ADHD subjects with a genetic alteration in an mGluR network gene; assay type: in vivo, human
# Protocol: An open-label Phase Ib clinical trial was conducted to investigate the safety, pharmacokinetics and efficacy of NFC-1 (fasoracetam monohydrate) in adolescent subjects between the ages of 12 and 17 previously diagnosed with ADHD who also had at least one genetic alteration in an mGluR network gene.
# The study included 30 ADHD subjects who were between ages 12 and 17, of any ancestry or race, of weight within the 5th to 95th percentile for their age, and otherwise judged to be in good medical health. […] Seventeen of the 30 subjects have a CNV in a tier 1 mGluR network gene, while 7 subjects have a CNV in a tier 2 gene and 6 in a tier 3 gene.
# Exclusion criteria comprised subjects suffering from a clinically significant illness, either mental or physical, that, in the investigator's opinion, might confound the results of the study or that might prevent them from completing the study, subjects that are pregnant or nursing, subjects that test positive for illicit drugs of that have a history of drug abuse, subjects that consume alcoholic beverages, or subjects for which the investigator is otherwise concerned regarding their compliance or suitability.
# NFC-1 capsules of either 50 mg or 200 mg comprising fasoracetam monohydrate as active ingredient and placebo capsules comprising microcellulose were used for the study. The design of the trial was a phone screening (1 day), enrollment phase (1 to 2 days), a wash-out phase for subjects currently on ADHD medications (1-14 days), pharmacokinetic (PK) assessment (2 days), followed by a dose-escalation phase (35 days) and a follow-up phone visit approximately four weeks after the last dose, for a maximum of 127 days. All ADHD medications were discontinued during the wash-out phase prior to the study. The wash-out period for stimulants was 2-3 days and that for atomoxetine or noradrenergic agonists was 10-12 days. No new ADHD medications were started during the study.
# A dose-escalation phase of the trial ran over a 5-week period, after the initial wash-out period and the PK and initial safety assessments. […]
# [3] = test system: dementia-related cognitive impairment; details: cited from earlier work
SMILES,bioavailability [1],"OCD symptoms ([2]; all eight subjects with OCD symptoms, during therapy)","dermatillomania symptoms (ear scratching, bleeding ulcer) ([2]; one subject with OCD and a history of ear scratching, during therapy)","conduct disorder symptoms, Vanderbilt items 27-40 score ([2]; week 5, one subject meeting conduct disorder criteria, decreased from 16 at week 1 (placebo week), 50-400 mg bid dose escalation)","safety and tolerability ([3]; Phase I-III trials, dementia-related cognitive impairment)","effects on psychiatric symptoms ([3]; Phase III data, cerebral infarct patients and adult dementia patients with cerebrovascular diseases)",efficacy in dementia ([3]; Phase III trials)
"O=C1CC[C@H](C(=O)N2CCCCC2)N1 [Fasoracetam, fasoracetam]",79%-97%,,,,,,
"O=C1CC[C@H](C(=O)N2CCCCC2)N1 [NFC-1, fasoracetam monohydrate]",,improved,reduced,12,generally safe and well tolerated,beneficial effects,did not show sufficient efficacy
